Key:
ß2 = ß2 (Homo sapiens, UniProt P07550); experiment: Block of ligand binding to β-adrenergic receptor, ß2; conditions: for IC50: read-out: Concentration (nM) To Block Binding of Ligand by 50% ß2; for inhibition at 10 µM: at 10,000 nM, 50% blockade not achieved at reasonable concentrations, read-out: % blocked at nM concentration shown ß2
ß1 = ß1 (Homo sapiens, UniProt P08588); experiment: Block of ligand binding to β-adrenergic receptor, ß1; conditions: for IC50: read-out: Concentration (nM) To Block Binding of Ligand by 50% ß1; for inhibition at 10 µM: at 10,000 nM, 50% blockade not achieved at reasonable concentrations, read-out: % blocked at nM concentration shown ß1
ß1, sequence (P08588 whole entry): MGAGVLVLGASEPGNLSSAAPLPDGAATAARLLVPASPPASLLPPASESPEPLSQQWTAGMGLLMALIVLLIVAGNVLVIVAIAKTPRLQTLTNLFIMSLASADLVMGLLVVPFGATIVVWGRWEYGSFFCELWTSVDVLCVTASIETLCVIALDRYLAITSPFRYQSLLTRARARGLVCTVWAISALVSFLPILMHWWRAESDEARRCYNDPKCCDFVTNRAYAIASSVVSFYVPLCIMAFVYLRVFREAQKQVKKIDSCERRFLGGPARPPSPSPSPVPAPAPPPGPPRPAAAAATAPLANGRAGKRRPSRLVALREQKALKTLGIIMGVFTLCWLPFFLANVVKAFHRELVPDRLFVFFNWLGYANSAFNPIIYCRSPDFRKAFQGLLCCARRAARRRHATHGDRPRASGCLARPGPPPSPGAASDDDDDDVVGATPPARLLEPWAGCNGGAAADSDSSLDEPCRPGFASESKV

ß2, sequence (P07550 whole entry): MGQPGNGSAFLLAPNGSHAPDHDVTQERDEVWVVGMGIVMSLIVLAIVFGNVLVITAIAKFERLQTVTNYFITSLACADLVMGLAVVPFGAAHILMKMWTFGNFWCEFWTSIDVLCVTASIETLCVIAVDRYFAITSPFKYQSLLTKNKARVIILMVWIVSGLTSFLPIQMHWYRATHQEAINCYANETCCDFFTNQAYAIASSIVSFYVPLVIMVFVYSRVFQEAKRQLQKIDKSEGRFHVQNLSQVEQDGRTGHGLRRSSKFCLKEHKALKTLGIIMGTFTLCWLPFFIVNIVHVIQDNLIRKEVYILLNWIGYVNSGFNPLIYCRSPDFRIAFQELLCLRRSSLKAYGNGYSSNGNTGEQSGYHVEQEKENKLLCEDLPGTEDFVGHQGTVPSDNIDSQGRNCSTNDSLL

| SMILES | IC50 (ß2) [nM] | IC50 (ß1) [nM] | inhibition at 10 µM (ß1) [%] | inhibition at 10 µM (ß2) [%] |
| --- | --- | --- | --- | --- |
| CCc1nc(N2CCN(C)CC2)c2sccc2n1 | 1040 | 2400 |  |  |
| CCCCc1nc2c(c(N3CCN(C)CC3)n1)SCCC2 | 4800 | 4300 |  |  |
| CCN1CCN(c2nc(C)nc3c2SCCC3)CC1 | 27000 |  | 3 |  |
| Cc1nc2c(c(N3CCN(Cc4ccccc4)CC3)n1)SCCC2 |  |  | 0 | 0 |
| Cc1nc2c(c(N3CCN(C)CC3)n1)CSC2 |  |  | 15 | 24 |
| Cc1nc2c(c(N3CCN(C4CC4)CC3)n1)SCCC2 |  |  | 6 | 8 |
| CCc1nc(N2CCNCC2)c2sccc2n1 [R^1 = -C2H5, R^2 = H (the 2nd table r0 drawing)] | 140 | 300 |  |  |
| Cc1nc2c(c(N3CCNCC3)n1)SCCC2 [R^1 = -CH3, R^2 = H (the 1st table r1 drawing)] | 314 | 680 |  |  |
| Cc1nc2c(c(N3CCNCC3)n1)CSC2 [R^1 = -CH3, R^2 = H (the 1st table r11 drawing)] | 340 | 820 |  |  |

From patent publication EP0276057B1, “Piperazinylpyrimidines as beta-adrenergic receptor blocking agents” (Merck & Co., Inc., priority 1987, dated 1988)
